Each structure is given as a SMILES string.

The target in data set [1] is T1, HBV polymerase (Hepatitis B virus genotype A2 subtype adw2, UniProt P03159).
T1 construct: made in house; host or cells: E. coli
The experiment in a line: In vitro reverse transcription activity of HBV polymerase (ELISA-type, DIG/biotin nucleotides). It is filed as biochemical. The note with it: read-out: Inhibition activity on HBV-RT (%); for inhibition at 0.01 µg/mL: 0.01 μg/ml test compound; for inhibition at 0.1 µg/mL: 0.1 μg/ml test compound; for inhibition at 1 µg/mL: 1 μg/ml test compound. The procedure, abridged: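 E. coli-expressed HBV polymerase was incubated on streptavidin-coated wells with […] (10 µM each in the reaction mix), with test compound at 1, 0.1 and 0.01 µg/ml, for 15 h at 22 °C. Product was detected with anti-DIG-POD and ABTS at A405; % reduction relative to the no-compound control.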

For data set [2], the system named is HBV. The data set can be described thus: Inhibition of HBV proliferation in HBV producing cell line HepG 2.2.15 (competitive PCR of culture supernatant). It is filed as cell-based, Hepatitis B virus. The note with it: Hepatitis B virus, HepG2.2.15, 168 h, HepG 2.2.15, one week, read-out: Inhibitory effect on the HBV proliferation, Inhibition activity on HBV-RT (%); for inhibition at 0.01 µg/mL: 0.01 μg/ml; for inhibition at 0.1 µg/mL: 0.1 μg/ml; for inhibition at 1 µg/mL: 1 μg/ml.

Data set [3] deals with T2, HIV reverse transcriptase (Human immunodeficiency virus type 1 group M subtype B, UniProt P04585).
T2 construct: activities of HIV reverse transcriptase; purchased Boehringer Mannheim
The experiment in a line: In vitro HIV reverse transcriptase activity (non-radioactive reverse transcriptase assay kit). It is filed as biochemical. The note with it: for Inhibitory effect on the activities of HIV reverse transcriptase, Inhibition activity on HBV-RT (%): 0.1 μg/ml test compound; for Inhibition of HIV reverse transcriptase activity: 1 μg/ml test compound.

The nature of data set [4]: Cytotoxicity test on HepG2 cells (MTT). It is filed as cell-based. The note with it: human, read-out: Cytotoxity on HepG2, IC50 (50% Inhibitory Concentration).
Data set [5] relates to HepG2 cells. The experiment in a line: Cytotoxicity test on HepG2 cells (MTT). Type of data set: cell-based.

T1 sequence (P03159 whole entry): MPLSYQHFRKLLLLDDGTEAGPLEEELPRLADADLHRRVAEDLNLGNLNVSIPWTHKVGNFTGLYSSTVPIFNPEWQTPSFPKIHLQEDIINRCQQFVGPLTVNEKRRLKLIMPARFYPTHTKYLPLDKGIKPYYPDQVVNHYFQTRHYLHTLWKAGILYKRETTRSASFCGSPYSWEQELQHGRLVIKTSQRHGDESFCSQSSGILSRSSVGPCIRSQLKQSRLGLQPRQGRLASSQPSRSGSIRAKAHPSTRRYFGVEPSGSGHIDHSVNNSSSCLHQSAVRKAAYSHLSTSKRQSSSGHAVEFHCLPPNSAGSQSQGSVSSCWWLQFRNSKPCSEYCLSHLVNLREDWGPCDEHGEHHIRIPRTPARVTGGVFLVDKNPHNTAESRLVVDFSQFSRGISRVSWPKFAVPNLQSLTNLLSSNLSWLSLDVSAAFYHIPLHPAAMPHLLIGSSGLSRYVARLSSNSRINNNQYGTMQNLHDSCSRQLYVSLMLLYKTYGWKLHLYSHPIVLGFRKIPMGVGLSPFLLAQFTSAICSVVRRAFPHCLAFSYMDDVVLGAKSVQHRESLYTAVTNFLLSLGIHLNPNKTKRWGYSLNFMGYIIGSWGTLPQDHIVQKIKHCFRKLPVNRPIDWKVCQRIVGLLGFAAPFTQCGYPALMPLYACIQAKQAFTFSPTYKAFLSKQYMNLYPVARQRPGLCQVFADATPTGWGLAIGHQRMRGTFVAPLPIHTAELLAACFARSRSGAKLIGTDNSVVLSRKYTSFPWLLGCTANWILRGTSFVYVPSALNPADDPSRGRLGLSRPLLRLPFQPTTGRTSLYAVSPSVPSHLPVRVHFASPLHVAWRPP

Turning to `CNC(=O)c1cnc(SC)nc1Nc1ccc2[nH]ncc2c1` [Example 3, 4-(1H-5-Indazolylamino)-N-methyl-2-methylthio-5-pyrimidine carboxamide], in data set [1], the inhibition at 0.01 µg/mL was found to be 34%, the inhibition at 0.1 µg/mL came to 59% and the inhibition at 1 µg/mL came out at 88%. In addition, in data set [2], the inhibition at 0.01 µg/mL turned out to be 15%, the inhibition at 0.1 µg/mL was determined as 42% and the inhibition at 1 µg/mL stood at 75%. Besides, in data set [3], the “Inhibitory effect on the activities of HIV reverse transcriptase, Inhibition activity on HBV-RT (%)” value turned out to be 48% and the “Inhibition of HIV reverse transcriptase activity” value came out at 62%. For the same compound, the IC50 in data set [4] is above 100 µg/mL. Further, the “Cytotoxity on HepG2, MCD (Minimal Cytotoxic Concentration)” value in data set [5] came to 100 µg/mL.
Take `CNC(=O)c1cnc(SC)nc1Nc1ccc2cn[nH]c2c1` [Example 4, 4-(1H-6-Indazolylamino)-N-methyl-2-methylthio-5-pyrimidinecarboxamide]: in data set [1], the inhibition at 0.01 µg/mL amounted to 52%, the inhibition at 0.1 µg/mL was 77% and the inhibition at 1 µg/mL was 96%. Further, in data set [2], the inhibition at 0.01 µg/mL worked out at 32%, the inhibition at 0.1 µg/mL stood at 70% and the inhibition at 1 µg/mL is 94%. Besides, in data set [3], the “Inhibitory effect on the activities of HIV reverse transcriptase, Inhibition activity on HBV-RT (%)” value was 42% and the “Inhibition of HIV reverse transcriptase activity” value is on record as 70%. Also, in data set [4], the IC50 was above 100 µg/mL. Besides, the “Cytotoxity on HepG2, MCD (Minimal Cytotoxic Concentration)” value in data set [5] was found to be 100 µg/mL.

The values are drawn from US6762189B1, “5-pyrimidinecarboxamide derivatives and the pharmaceutical compositions containing said derivatives” (Dong Wha Pharm. Ind. Co., Ltd., priority 1999, dated 2004).
